According to patent US20240343762A1, “USE OF PROTON PUMP MODULATOR IN PREPARING REAGENT” (SHANGHAI QUIETD BIOTECHNOLOGY CO. LTD., priority 2021, published 2024):
Ends that are not written are not given here.

Tests used:
[1] = test system: hippocampal CA1 pyramidal neurons; experiment: Whole-cell patch-clamp recording of spontaneous excitatory postsynaptic current (sEPSC) in hippocampus brain slice; assay type: cell-based, mouse; details: sEPSC at -70 mV, perfusion for 5 min; 5 μM in Embodiment 3
Method: 0.1-0.15 ml of 20% ethyl carbamate was injected into the abdominal cavity of a C57 mouse of 2 to 3 months old for anesthesia; a head was quickly cut, and brain tissues were stripped and put into artificial cerebrospinal fluid (ACSF) ice-water mixed liquid into which mixed gas (95% O2 and 5% CO2) was introduced in advance, and stood for 2 min; the ACSF included the following components: […] of NaCl, […] of KCl, 0.12 mM of NaH2PO4, 0.25 mM of CaCl2), 0.12 mM of MgCl2, 25 mM of NaHCO3 and 11 mM of glucose. A hippocampus coronal brain slice of 350 μm was cut by a vibration slicer. The hippocampus coronal brain slice was placed into the ACSF at room temperature for more than 30 min for recovery, and then the brain slice was put into a record slot; continuous perfusing was performed at a speed of 2 to 2.5 ml/min by the ACSF into which the mixed gas was introduced; blind-binding sealing was performed on hippocampus CA1 pyramidal neuron under an Olympic BX51 upright microscope; whole-cell patch-clamp was performed by an Axon700B amplifier and a 1550B digital-to-analog converter; spontaneous excitatory postsynaptic current (sEPSC) of the pyramidal neuron was recorded by a voltage clamp under the clamp voltage of −70 mV; after recording for 5 min, synthetic polypeptides such as 5 μM QD202 or QD202 N′-1, C′-1 and C′-2 for 5 min; and then perfusing and flushing were performed for 10 min by the ACSF. The recorded data was analyzed by Minianalysis software. […]

[2] = target: T1, ATP6V1B2 protein of mouse brain hippocampus tissue (endogenous) (mouse, UniProt P62814 1-511); experiment: immunoprecipitation with biotin antibody from mouse hippocampus lysate, SDS-PAGE, mass spectrometry
T1 construct: Endogenous protein in tissue lysate; also called band of about 55 kDa
T1 sequence (P62814 whole entry): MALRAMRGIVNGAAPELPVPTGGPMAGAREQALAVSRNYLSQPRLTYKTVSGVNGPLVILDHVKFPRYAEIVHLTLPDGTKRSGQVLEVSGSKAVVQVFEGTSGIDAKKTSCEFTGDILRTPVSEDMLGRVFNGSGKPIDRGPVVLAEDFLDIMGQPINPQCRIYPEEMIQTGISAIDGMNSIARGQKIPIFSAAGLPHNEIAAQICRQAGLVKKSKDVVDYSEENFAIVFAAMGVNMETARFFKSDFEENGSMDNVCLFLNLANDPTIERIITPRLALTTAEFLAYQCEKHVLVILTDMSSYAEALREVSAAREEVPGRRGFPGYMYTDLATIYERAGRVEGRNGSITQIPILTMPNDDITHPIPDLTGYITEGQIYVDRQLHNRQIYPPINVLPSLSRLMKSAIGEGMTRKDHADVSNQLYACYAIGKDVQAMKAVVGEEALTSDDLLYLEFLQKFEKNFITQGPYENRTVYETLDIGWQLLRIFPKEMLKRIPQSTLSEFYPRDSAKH

Row | Molecule | spontaneous excitatory synaptic transmitter release of hippocampal CA1 neurons [1] | binding result [2]
1 | QD202 C′-2: polypeptide of SEQ ID NO. 4; QD202 with two amino acids removed at the C end (YGRKKRRQRRRSPVDVV; QD202 C -2) | effect similar to that of QD202 cannot be observed | 
2 | QD202 C′-1: polypeptide of SEQ ID NO. 3; QD202 with one amino acid removed at the C end (YGRKKRRQRRRSPVDVVC; QD202 C -1) | effect similar to that of QD202 can still be observed | 
3 | QD202 N′-1: polypeptide of SEQ ID NO. 2; QD202 with one amino acid removed at the N end (YGRKKRRQRRRPVDVVCS; QD202 N -1) | effect similar to that of QD202 cannot be observed | 
4 | YGRKKRRQRRRVCDSSVVP-biotin [Disordered control QD201 with a biotin label at the C' end] |  | no binding
